Assay results published in article PMC10287695, “Non-covalent inhibitors of thioredoxin glutathione reductase with schistosomicidal activity in vivo” (Nature Communications, 2023).
Where “and” joins values, the source holds several entries; their conditions need not be identical. Identical values can stand only once. Entries after “also recorded” stand apart in the source; their conditions may differ. Like-named read-outs stand apart in the source and are kept apart here.

How the values were obtained:
adult worms in mice = test system: adult worms in mice; parameters: method as in PMID 15013742; settings: cited from earlier work
juvenile worms in mice = settings: cited from earlier work
adult worms = test system: adult worms; parameters: method as in PMID 15013742; settings: overnight exposure followed by 8 days culture; cited from earlier work
[1] = test system: S. mansoni juvenile worms; parameters: method as in PMID 15013742; settings: cited from earlier work
TGR = target: T1, TGR (Schistosoma mansoni, UniProt Q962Y6); assay type: biochemical, S. mansoni; settings: 6 hr preincubation
T1 construct: made in house
T1 sequence (Q962Y6 1-598): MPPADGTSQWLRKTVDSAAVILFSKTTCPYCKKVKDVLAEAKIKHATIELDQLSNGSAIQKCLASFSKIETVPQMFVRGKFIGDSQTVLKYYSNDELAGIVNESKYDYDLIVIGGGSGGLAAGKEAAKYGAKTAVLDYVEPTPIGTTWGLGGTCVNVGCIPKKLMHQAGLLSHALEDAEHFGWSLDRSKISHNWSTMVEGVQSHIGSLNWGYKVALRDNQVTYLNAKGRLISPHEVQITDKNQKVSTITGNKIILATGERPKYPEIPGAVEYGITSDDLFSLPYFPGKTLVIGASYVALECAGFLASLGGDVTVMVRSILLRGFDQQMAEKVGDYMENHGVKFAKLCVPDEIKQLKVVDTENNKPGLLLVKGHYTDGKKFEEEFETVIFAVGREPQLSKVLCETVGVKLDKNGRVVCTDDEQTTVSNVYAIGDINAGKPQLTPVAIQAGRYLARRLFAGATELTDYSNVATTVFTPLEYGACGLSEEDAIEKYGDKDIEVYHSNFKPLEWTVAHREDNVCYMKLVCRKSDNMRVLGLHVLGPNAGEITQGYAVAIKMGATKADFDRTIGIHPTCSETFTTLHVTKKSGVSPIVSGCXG

[2] = Stability of compound under biochemical assay conditions with recombinant TGR (LC-MS); assay type: physicochemical; settings: with or without NADPH
Method: TGR assay solutions (1 ml each) were prepared as described in the main manuscript. […] Each of the reaction mixtures were terminated by the addition of 250 µl of ethyl acetate, extracted with 1 ml of methyl tert-butyl ether. The organic layer was evaporated in vacuo, and the residue was redissolved in 0.5 mL of 50% MeOH before injection onto LC column. LC-MS analysis was done on a Waters SYNAPT quadrupole/time-of-flight mass spectrometer operated in positive ion electrospray mode. The column was Waters XBridge C8 column and gradient was from 20-90% MeCN/0.1% formic acid over 12 min.

[3] = Reactivity with GSH or N-Boc protected methyl ester of selenocysteine (LCMS); assay type: physicochemical; settings: up to 120 h
Method: Dimethyl bis(N-tert-butoxycarbonyl)-L-selenocystine was synthesized as reported previously. (N-tert-butoxycarbonyl)-L-selenocysteine methyl ester was prepared in situ[86] in methanol or phosphate buffer. Compound 2 was added to the solution of (N-tert-butoxycarbonyl)-L-selenocysteine methyl ester in either methanol or phosphate buffer and incubated for 40 min, 24 h, and 120 h under N2 gas balloon. Additional amounts of NaBH4 were added at 12 h and 96 h to maintain the reducing conditions. Aliquots taken from methanol solution at each of the time points were concentrated in vacuo, mixed with water, and extracted with ethyl acetate. The organic layer was separated, concentrated in vacuo, re-dissolved in methanol and analyzed by LCMS. Aliquots taken from the phosphate buffer solution were extracted with ethyl acetate. The resulting organic layer was separated and concentrated in vacuo. The residue was re-dissolved in methanol and analyzed by LCMS. […] No additional spots were detected by TLC as well.
Covalent TGR inhibitor TRi-1 was used as a positive control for the reaction with (N-tert-butoxycarbonyl)-L-selenocysteine methyl ester. The reactivity of TRi-1 was tested similarly as described above for compound 2.

[4] = Pharmacokinetics, oral gavage; settings: for plasma concentration, individual animals (Animal 1, Animal 2) / plasma concentration: listed as 1 (8VP101); for plasma concentration, individual animals (Animal 1, Animal 2) / concentration at 30 min / concentration at 60 min / concentration at 120 min / concentration at 0.5 h / concentration at 1 h / concentration at 2 h / plasma concentration: 200 mg/kg; for concentration at 30 min / concentration at 60 min / concentration at 120 min / concentration at 0.5 h / concentration at 1 h / concentration at 2 h: female, Swiss Webster, mouse, plasma, po
Method: Tween 80 and saline were then added to the DMSO solution in that order. Final solution was 10% DMSO:10% Tween 80:80% saline.
Swiss Webster female mice were purchased from Charles River Laboratories (Wilmington, MA, USA). […] All the mice were weighed and gavaged orally at 200 mg/kg body weight with freshly prepared 2. Blood was collected by submandibular puncture at 0, 0.25, 0.5, 1, and 2 h.
Samples were deproteinized with 150 µl of internal standard solution. This mixture was vortexed to mix properly and centrifuged at 13000 × g for 30 min. 160 µl of the supernatant was transferred to another set of tubes and dried using a nitrogen evaporator. Samples were reconstituted in 100 µl of methanol, vortexed and centrifuged at 13000 × g for 20 min. 30 µl of supernatant was transferred to autosampler vials.
Experiments were carried out on ThermoFisher Scientific Vanquish high-performance liquid chromatography connected to ThermoFisher Scientific TSQ Quantis – triple quadrupole mass spectrometer. The analyte molecules were separated on Phenomenex kinetex C18 column 100 Å (2.6 μm, 50 × 3 mm) with the mobile phase composed of Water/0.1% formic acid (A) and Acetonitrile (B) at the flow rate of 0.5 ml/min with the column temperature maintained at 40 °C and the sample of injection was 5 µl.
Quantification was performed using electrospray in the positive mode with the spray voltage of 3500 V. Sheath gas (Arb) 20, Auxiliary gas (Arb) 8 and Sweep gas (Arb) 5.7.

O=C(C1CCCCC1)N1CC(=O)N2CCc3ccccc3C2C1 (centres unmarked) [PZQ, praziquantel]
ED50 against adult worms in mice (adult worms in mice): 80 mg/kg | reduction in worm burden (juvenile worms in mice; mice, 500 mg/kg, 21 d.p.i.): 0% | reduction in worm burden (juvenile worms in mice; mice, 500 mg/kg, 28 d.p.i.): 0% | reduction in worm burden (juvenile worms in mice; mice, 1,000 mg/kg, 21 d.p.i.): 50% | reduction in worm burden (juvenile worms in mice; mice, 1,000 mg/kg, 28 d.p.i.): 17% | ED50 (juvenile worms in mice; mice, doses titrated 28 d.p.i.): 2,456 mg/kg | LD50 against adult worms, female (adult worms): 5.1 µM | LD50 against adult worms, male (adult worms): 1.5 µM | LD50 of PZQ against ex vivo S. mansoni juvenile worms [1]: 413 µM

Cc1oc(-c2ccccc2)nc1CN[C@@H]1C[C@@H]2C[C@H]([C@H]1C)C2(C)C [Compound 3]
Vmax (TGR; 35 µM inhibitor): 0.011 ± 0.0002 ΔA412/min | Vmax (TGR; 50 µM inhibitor): 0.0096 ± 0.0002 ΔA412/min

CCc1ccccc1-c1nc(CN[C@@H]2C[C@@H]3C[C@H]([C@H]2C)C3(C)C)c(C)o1 [Compound 2]
formation of derivatives under biochemical assay conditions [2]: No additional ions except for those corresponding to 2 were detected; also recorded: no formation of derivatives | reaction with thiol or selenol groups in GSH or protected selenocysteine [3]: No additional peaks were detected; also recorded: no reaction | plasma concentration, individual animals (Animal 1, Animal 2) ([4]; PO 200 mg/kg, 0.5 Hour): 0.255 ug/mL and 0.704 uM | plasma concentration, individual animals (Animal 1, Animal 2) ([4]; PO 200 mg/kg, 1 Hour): 0.273 ug/mL and 0.767 uM | plasma concentration, individual animals (Animal 1, Animal 2) ([4]; PO 200 mg/kg, 2 Hour): 0.135 ug/mL and 0.409 uM | concentration at 30 min ([4]; Plasma concentration, mice, oral gavage, 30 min): 714 nM and 252 ng/mL | concentration at 60 min ([4]; Plasma concentration, mice, oral gavage, 60 min): 771 nM and 272 ng/mL | concentration at 120 min ([4]; Plasma concentration, mice, oral gavage, 120 min): 396 nM and 140 ng/mL | concentration at 0.5 h ([4]; plasma concentration, Average, PO 200 mg/kg, 0.5 Hour): 252 ng/mL | concentration at 1 h ([4]; plasma concentration, Average, PO 200 mg/kg, 1 Hour): 272 ng/mL | concentration at 2 h ([4]; plasma concentration, Average, PO 200 mg/kg, 2 Hour): 140 ng/mL | concentration at 0.5 h ([4]; plasma concentration, individual animals (Animal 1, Animal 2), PO 200 mg/kg, 0.5 Hour): 724 nM and 248 ng/mL | concentration at 1 h ([4]; plasma concentration, individual animals (Animal 1, Animal 2), PO 200 mg/kg, 1 Hour): 774 nM and 270 ng/mL | concentration at 2 h ([4]; plasma concentration, individual animals (Animal 1, Animal 2), PO 200 mg/kg, 2 Hour): 383 nM and 144 ng/mL | concentration at 30 min ([4]; plasma concentration, mice, 200 mg/kg p.o., 30 min): 710 nM | concentration at 60 min ([4]; plasma concentration, mice, 200 mg/kg p.o., 60 min): 770 nM | concentration at 120 min ([4]; plasma concentration, mice, 200 mg/kg p.o., 120 min): 400 nM | plasma concentration ([4]; mice, 200 mg/kg p.o., 30 min): 714 nM | plasma concentration ([4]; mice, 200 mg/kg p.o., 60 min): 771 nM | plasma concentration ([4]; mice, 200 mg/kg p.o., 120 min): 396 nM | maximum plasma concentration ([4]; mice, PO 200 mg/kg): 0.77 µM
